Results: article PMC10861852, “Loss of activation by GABA in vertebrate delta ionotropic glutamate receptors” (Proceedings of the National Academy of Sciences of the …, 2024)
Substitutions are numbered along the chain they refer to. Read-outs that look alike come from different tables or passages of the source.

Experiments:
AcaGluD = target: T1, AcaGluD (Acanthaster planci, UniProt A0A8B7XXR5); experiment: Two-electrode voltage clamp, ligand-gated currents in oocytes; type: cell-based
T1 sequence (A0A8B7XXR5 24-958): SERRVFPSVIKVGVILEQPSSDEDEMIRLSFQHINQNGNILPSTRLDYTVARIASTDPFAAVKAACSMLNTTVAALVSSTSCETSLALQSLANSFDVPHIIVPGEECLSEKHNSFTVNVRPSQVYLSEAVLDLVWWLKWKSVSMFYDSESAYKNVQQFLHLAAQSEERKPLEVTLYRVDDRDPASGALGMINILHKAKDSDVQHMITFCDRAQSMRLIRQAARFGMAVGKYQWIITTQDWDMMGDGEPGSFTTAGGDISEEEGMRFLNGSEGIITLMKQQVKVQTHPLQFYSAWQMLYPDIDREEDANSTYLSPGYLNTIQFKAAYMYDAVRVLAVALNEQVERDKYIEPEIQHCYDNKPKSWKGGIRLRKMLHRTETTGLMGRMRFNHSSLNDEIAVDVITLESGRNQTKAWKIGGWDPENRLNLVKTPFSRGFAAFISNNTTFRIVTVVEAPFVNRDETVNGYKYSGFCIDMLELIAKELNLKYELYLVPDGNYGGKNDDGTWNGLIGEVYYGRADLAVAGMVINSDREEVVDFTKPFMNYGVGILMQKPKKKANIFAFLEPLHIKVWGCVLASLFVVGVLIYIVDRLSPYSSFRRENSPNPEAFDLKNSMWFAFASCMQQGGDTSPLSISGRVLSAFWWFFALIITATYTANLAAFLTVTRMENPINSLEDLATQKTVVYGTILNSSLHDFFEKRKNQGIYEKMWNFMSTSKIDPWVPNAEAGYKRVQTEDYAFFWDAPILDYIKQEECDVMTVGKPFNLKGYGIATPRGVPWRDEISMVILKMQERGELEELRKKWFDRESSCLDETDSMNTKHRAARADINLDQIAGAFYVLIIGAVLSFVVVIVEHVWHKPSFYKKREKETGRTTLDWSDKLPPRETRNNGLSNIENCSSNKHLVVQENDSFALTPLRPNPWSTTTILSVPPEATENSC

RatGluD2^Lc = target: T2, RatGluD2^Lc (Rattus norvegicus, UniProt Q63226, A654T); experiment: Two-electrode voltage clamp, inhibition of constitutive current in oocytes; conditions: each n = 4
T2 sequence (Q63226 24-1007 A654T): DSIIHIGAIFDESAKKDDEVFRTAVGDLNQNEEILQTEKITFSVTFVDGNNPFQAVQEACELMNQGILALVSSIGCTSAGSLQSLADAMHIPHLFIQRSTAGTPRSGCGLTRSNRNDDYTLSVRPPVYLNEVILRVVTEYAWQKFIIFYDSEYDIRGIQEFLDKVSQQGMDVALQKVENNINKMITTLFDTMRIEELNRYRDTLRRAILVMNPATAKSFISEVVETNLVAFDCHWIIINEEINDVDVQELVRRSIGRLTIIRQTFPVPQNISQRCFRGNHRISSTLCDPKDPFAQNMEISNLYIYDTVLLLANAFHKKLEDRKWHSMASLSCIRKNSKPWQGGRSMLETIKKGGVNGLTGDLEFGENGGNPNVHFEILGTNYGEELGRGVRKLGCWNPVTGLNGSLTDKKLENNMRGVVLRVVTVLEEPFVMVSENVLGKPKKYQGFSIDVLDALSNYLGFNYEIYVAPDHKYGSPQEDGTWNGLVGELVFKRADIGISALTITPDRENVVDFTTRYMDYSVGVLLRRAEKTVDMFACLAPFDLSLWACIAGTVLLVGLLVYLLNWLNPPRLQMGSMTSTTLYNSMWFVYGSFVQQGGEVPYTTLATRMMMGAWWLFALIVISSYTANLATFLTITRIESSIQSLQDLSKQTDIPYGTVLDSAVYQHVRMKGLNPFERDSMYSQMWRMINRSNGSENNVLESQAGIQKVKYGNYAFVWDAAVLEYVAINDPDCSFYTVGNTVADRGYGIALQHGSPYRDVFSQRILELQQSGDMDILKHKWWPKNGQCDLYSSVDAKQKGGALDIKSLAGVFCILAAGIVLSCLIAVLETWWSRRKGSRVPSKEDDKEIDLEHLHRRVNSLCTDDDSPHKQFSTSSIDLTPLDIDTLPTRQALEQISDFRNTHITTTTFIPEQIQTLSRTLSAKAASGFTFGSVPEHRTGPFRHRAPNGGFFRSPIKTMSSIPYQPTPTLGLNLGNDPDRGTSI
Text: (C) Left panels, example recordings of oocytes expressing A654T lurcher-mutant RatGluD2 (RatGluD2Lc) in response to indicated AMPA iGluR antagonists and D-serine. Dashed line, zero current baseline. Right panel, % inhibition at different oocytes (dots) and resulting means (columns).

WT RatGluD2 = target: T3, WT RatGluD2 (Rattus norvegicus, UniProt Q63226); experiment: Two-electrode voltage clamp in oocytes; type: cell-based; conditions: n = 4
T3 construct: expressed in transfected cells; host or cells: Xenopus laevis oocytes injected with mRNA
T3 sequence (Q63226 24-1007): T2 sequence (Q63226 24-1007 A654T) with T631A

RatGluD2^Lc^-9x = target: T4, RatGluD2^Lc^-9x (Rattus norvegicus, UniProt Q63226, A654T/A686S/D753Q/K694R/N720P/N763K/P806D/Q786M/R787V/Y613F); experiment: Two-electrode voltage clamp, responses to ligands in mutant-expressing oocytes; type: cell-based; conditions: pentamidine 100 μM
T4 construct: expressed in transfected cells; host or cells: Xenopus laevis oocytes injected with mRNA
T4 sequence (Q63226 24-1007 Y613F/A654T/A686S/K694R/N720P/D753Q/N763K/Q786M/R787V/P806D): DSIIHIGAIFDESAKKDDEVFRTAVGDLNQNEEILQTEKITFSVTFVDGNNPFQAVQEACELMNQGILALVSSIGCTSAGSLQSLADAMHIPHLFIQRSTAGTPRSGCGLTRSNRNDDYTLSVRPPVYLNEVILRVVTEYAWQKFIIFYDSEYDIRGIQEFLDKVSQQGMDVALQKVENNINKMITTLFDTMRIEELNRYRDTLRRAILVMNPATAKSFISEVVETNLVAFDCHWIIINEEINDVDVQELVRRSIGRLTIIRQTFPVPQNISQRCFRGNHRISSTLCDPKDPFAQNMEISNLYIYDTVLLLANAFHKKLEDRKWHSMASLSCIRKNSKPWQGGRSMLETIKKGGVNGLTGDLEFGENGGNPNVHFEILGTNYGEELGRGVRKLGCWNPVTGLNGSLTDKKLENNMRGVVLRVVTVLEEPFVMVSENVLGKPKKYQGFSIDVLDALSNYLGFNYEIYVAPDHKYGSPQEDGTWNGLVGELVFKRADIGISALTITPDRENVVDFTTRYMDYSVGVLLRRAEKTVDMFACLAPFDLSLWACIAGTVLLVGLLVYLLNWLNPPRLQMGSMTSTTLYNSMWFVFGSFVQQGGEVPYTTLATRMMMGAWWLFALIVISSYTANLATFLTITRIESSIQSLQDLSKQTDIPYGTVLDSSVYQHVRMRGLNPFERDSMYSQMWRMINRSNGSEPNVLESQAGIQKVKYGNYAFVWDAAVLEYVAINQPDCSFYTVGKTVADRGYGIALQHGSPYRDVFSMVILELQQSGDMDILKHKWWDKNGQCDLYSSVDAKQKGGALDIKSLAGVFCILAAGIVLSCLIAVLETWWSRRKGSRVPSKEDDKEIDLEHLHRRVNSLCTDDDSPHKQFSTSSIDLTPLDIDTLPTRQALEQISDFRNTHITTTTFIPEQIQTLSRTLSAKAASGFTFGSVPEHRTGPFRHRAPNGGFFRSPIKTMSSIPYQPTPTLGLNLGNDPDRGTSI
Text: If the 10 mutations discussed above drove the loss of function in vertebrate delta iGluRs, one might expect that the latter could be “reawakened” via active invertebrate delta iGluR-like mutations here. We therefore engineered mutant RatGluD2 iGluRs to contain at these positions the equivalent residues from starfish delta iGluRs. These mutants were RatGluD2^5x, containing Y613F, A686S, K694R, N720P, and P806D substitutions (pink in Fig. 6A), and RatGluD2^9x, additionally containing N763K, D753Q, Q786M, and R787V (cyan in Fig. 6A).
Fig. 6. AcaGluD-like mutations alter RatGluD2 receptor function. (A) D-serine bound RatGluD2 from X-ray structure PDB:2v3u ([13]). Selected amino acid residues are indicated, colored, shown as sticks, and labeled 5×, 9×, 10×, and/or Lc according to the multiple mutants they were incorporated into. 10× mutant included 10×, 9×, and 5× positions. 9× included 9× and 5×. 5× included only 5×. […] (B–E) Example current responses to different neurotransmitter ligands (30 mM) and to pore blocker pentamidine (Pent, 100 μM) in oocytes expressing indicated RatGluD2 mutants. The dashed line indicates zero current baseline. (F) Individual (dots) and mean (columns) responses to ligands in oocytes expressing indicated RatGluD2 mutants (n = 4 to 5).

RatGluA2 AMPA receptors = RatGluA2 AMPA receptors (Rattus norvegicus, UniProt P19491); experiment: Two-electrode voltage clamp, glutamate-gated current in oocytes expressing RatGluA2 and human TARPγ2; type: cell-based; conditions: n = 5
Sequence of RatGluA2 AMPA receptors (P19491 22-883 isoform P19491-2 limits assumed): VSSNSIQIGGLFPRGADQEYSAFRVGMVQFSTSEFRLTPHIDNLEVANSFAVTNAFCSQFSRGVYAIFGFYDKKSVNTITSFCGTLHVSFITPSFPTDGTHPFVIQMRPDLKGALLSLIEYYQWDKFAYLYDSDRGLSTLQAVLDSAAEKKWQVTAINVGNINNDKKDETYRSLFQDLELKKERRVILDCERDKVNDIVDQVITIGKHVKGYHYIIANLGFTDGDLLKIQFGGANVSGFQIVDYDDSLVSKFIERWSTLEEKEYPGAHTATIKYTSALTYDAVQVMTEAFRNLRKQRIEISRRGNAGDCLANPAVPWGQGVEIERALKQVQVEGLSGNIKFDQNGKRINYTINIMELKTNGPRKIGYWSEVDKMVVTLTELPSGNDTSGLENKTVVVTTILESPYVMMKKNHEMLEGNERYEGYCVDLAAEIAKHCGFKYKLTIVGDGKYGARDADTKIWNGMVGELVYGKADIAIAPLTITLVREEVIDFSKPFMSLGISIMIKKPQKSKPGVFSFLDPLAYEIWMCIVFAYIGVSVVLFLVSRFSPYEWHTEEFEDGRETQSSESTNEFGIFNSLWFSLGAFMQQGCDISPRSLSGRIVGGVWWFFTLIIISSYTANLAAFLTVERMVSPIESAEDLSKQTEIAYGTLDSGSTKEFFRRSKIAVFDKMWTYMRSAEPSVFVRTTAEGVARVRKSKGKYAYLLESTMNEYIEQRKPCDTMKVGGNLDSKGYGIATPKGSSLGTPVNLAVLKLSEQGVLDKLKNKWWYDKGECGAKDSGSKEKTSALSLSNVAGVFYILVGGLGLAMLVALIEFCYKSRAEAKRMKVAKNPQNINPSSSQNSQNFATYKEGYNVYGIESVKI
Sequence of RatGluA2 AMPA receptors (Q9Y698 whole entry partner): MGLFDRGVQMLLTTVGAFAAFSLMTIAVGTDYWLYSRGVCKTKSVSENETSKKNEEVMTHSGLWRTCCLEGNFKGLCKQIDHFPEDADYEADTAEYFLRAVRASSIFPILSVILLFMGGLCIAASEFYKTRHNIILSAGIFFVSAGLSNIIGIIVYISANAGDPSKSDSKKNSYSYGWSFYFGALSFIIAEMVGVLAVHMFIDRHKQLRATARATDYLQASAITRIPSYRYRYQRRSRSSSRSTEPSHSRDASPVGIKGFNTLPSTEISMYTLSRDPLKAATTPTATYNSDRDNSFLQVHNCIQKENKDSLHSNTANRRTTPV
Text: (dots) and resulting means (columns).

D825P AcaGluD = experiment: Two-electrode voltage clamp, GABA-gated current before/after concanavalin A treatment; type: cell-based, Acanthaster planci; conditions: concanavalin A 10 μM, 30 mM GABA
Text: (§1) Fig. 5. RatGluD2-like substitutions impair the ligand-gated activity of AcaGluD receptors. (A) Ligand-gated currents in oocytes expressing indicated mutant AcaGluD receptors or uninjected oocytes. (B) Maximum current amplitude (“Imax”, Upper) and relative ligand-gated current amplitude (“I/Imax”, Lower) and at wild-type (WT) and mutant AcaGluD receptors (mean ± SEM, n = 3 to 5). (C) Immunolabeling c-Myc tag in AcaGluD C-terminal. Upper, example micropgraphs. Lower, […] fluorescence units (RFU) plotted against relative radial distance, peaking at the oocyte surface. White scale bars, 100 μm. (D) AlphaFold model of two adjacent AcaGluD LBDs (rear LBD faded). Selected amino acid residues colored and shown as sticks. Magenta, drastic loss of function; cyan, moderate loss of function. […] (E) Upper, example, and Lower, summarized current responses to 30 mM GABA (“IGABA”) in WT or mutant AcaGluD-expressing oocytes before or after treatment with concanavalin A (“ConA”, 10 μM).

R721K AcaGluD = experiment: as above; type: cell-based, Acanthaster planci; conditions: concanavalin A 10 μM, 30 mM GABA
Text: as §1

S713A AcaGluD = experiment: as above; type: cell-based, Acanthaster planci; conditions: concanavalin A 10 μM, 30 mM GABA
Text: as §1

F640Y AcaGluD = experiment: as above; type: cell-based, Acanthaster planci; conditions: concanavalin A 10 μM, 30 mM GABA
Text: as §1

Compound: NS(=O)(=O)c1cccc2c1c([N+](=O)[O-])cc1nc(O)c(O)nc12 [NBQX]
- currents elicited when applied alone (AcaGluD; 100 μM, applied alone): elicited no currents
- inhibition of GABA-gated current (AcaGluD; 100 μM, coapplied with ~EC30 GABA concentration): 61 ± 3%
- enhancement of glutamate-gated currents (AcaGluD; 100 μM, n = 5): 34 ± 3%
- inhibition of constitutive currents (RatGluD2^Lc): 9 ± 0.2%
- effect on oocytes expressing WT RatGluD2 (WT RatGluD2): no effect

Compound: N=C(N)c1ccc(OCCCCCOc2ccc(C(=N)N)cc2)cc1 [pentamidine]
- inhibition at 100 µM (AcaGluD; 100 μM, n = 5, read-out: block of GABA-gated current): 68 ± 5%
- inhibition at 100 µM (AcaGluD; 100 µM, n = 7, read-out: block of glutamate-gated current): 78 ± 2%
- effect on glycine-gated currents (RatGluD2^Lc^-9x): inhibited
- inhibition at 100 µM (RatGluA2 AMPA receptors): 37 ± 3%

Compound: Concanavalin A
- increase in current amplitude after treatment (D825P AcaGluD): fourfold increase
- increase in activity (GABA-gated current) after treatment (R721K AcaGluD): > 100 fold
- increase in activity (GABA-gated current) after treatment (S713A AcaGluD): > 100 fold
- increase in activity (GABA-gated current) after treatment (F640Y AcaGluD): > 100 fold
